{"source": "PubChem BioAssay AID256", "about": "(DTP/NCI, 2004)", "tested_on": "CD2F1 mice, L1210 leukemia ip, survival T/C", "experiment": "NCI In Vivo Anticancer Drug Screen. Data for tumor model L1210 Leukemia (intraperitoneal) in CD2F1 (CDF1) mice", "conditions": "higher = longer survival", "method_in_brief": "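Activity against a transplanted murine tumor was judged by comparing the compound group with a vehicle group. The outcome in the treated animals was divided by that in the controls.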", "key": {"[1]": {"conditions": "endpoint: mean survival time, dose: 100.0 mg/kg/injection, schedule: Q04DX002 (ip), vehicle: saline"}, "[2]": {"conditions": "endpoint: mean survival time, dose: 200.0 mg/kg/injection, schedule: Q04DX002 (ip), vehicle: saline"}, "[3]": {"conditions": "endpoint: mean survival time, dose: 400.0 mg/kg/injection, schedule: Q04DX002 (ip), vehicle: saline"}}, "note": "Several values for one entry are separate records, joined by “and”; a condition that tells them apart may be missing. Equal values may be shown once. Toxic doses and inconclusive results are not listed.", "data": [{"smiles": "CC[N+]1(C)C2CCC1CC(O)C2", "note": "(stereo not given)", "values": [{"measurement": "T/C", "setting": "[1]", "value": "105 % of control"}, {"measurement": "T/C", "setting": "[2]", "value": "102 % of control"}]}, {"smiles": "COc1cc2c(C)nc3c4cc5c(cc4ccc3c2cc1OC)OCO5", "values": [{"measurement": "T/C", "setting": "endpoint: mean survival time, dose: 3.13 mg/kg/injection, schedule: Q01DX009 (ip), vehicle: water", "value": "97 % of control"}, {"measurement": "T/C", "setting": "endpoint: mean survival time, dose: 6.25 mg/kg/injection, schedule: Q01DX009 (ip), vehicle: water", "value": "92 % of control"}, {"measurement": "T/C", "setting": "endpoint: mean survival time, dose: 12.5 mg/kg/injection, schedule: Q01DX009 (ip), vehicle: water", "value": "90 % of control"}, {"measurement": "T/C", "setting": "endpoint: mean survival time, dose: 25.0 mg/kg/injection, schedule: Q01DX009 (ip), vehicle: water", "value": "95 % of control"}, {"measurement": "T/C", "setting": "endpoint: mean survival time, dose: 50.0 mg/kg/injection, schedule: Q01DX009 (ip), vehicle: water", "value": "93 % of control"}]}, {"smiles": "C=CCOc1ccc(Cl)cc1Cl", "values": [{"measurement": "T/C", "setting": "endpoint: mean survival time, dose: 37.5 mg/kg/injection, schedule: Q01DX009 (ip), vehicle: saline with Tween-80", "value": "93 % of control"}, {"measurement": "T/C", "setting": "endpoint: mean survival time, dose: 75.0 mg/kg/injection, schedule: Q01DX009 (ip), vehicle: saline with Tween-80", "value": "101 % of control"}, {"measurement": "T/C", "setting": "endpoint: mean survival time, dose: 150.0 mg/kg/injection, schedule: Q01DX009 (ip), vehicle: saline with Tween-80", "value": "97 % of control"}]}, {"smiles": "N#CSCc1c(Cl)c(Cl)c(CSC#N)c(Cl)c1Cl", "values": [{"measurement": "T/C", "setting": "endpoint: mean survival time, dose: 75.0 mg/kg/injection, schedule: Q04DX003 (ip), vehicle: saline", "value": "95 % of control"}, {"measurement": "T/C", "setting": "endpoint: mean survival time, dose: 150.0 mg/kg/injection, schedule: Q04DX003 (ip), vehicle: saline", "value": "98 % of control"}, {"measurement": "T/C", "setting": "endpoint: mean survival time, dose: 300.0 mg/kg/injection, schedule: Q04DX003 (ip), vehicle: saline", "value": "98 % of control"}]}, {"smiles": "CC(=O)Nc1c(Cl)c(Cl)c2c(c1Cl)Cc1cc(Br)ccc1-2", "values": [{"measurement": "T/C", "setting": "endpoint: mean survival time, dose: 25.0 mg/kg/injection, schedule: Q01DX009 (ip), vehicle: Klucel (hydroxypropylcellulose) (HPC)", "value": "109 % of control"}]}, {"smiles": "CN(C)CCCNC1=C(Cl)C(=O)C(NCCCN(C)C)=C(Cl)C1=O", "values": [{"measurement": "T/C", "setting": "endpoint: median survival time, dose: 6.25 mg/kg/injection, schedule: Q01DX009 (ip), vehicle: Klucel (hydroxypropylcellulose) (HPC)", "value": "97 % of control"}, {"measurement": "T/C", "setting": "endpoint: median survival time, dose: 12.5 mg/kg/injection, schedule: Q01DX009 (ip), vehicle: Klucel (hydroxypropylcellulose) (HPC)", "value": "94 % of control"}, {"measurement": "T/C", "setting": "endpoint: median survival time, dose: 25.0 mg/kg/injection, schedule: Q01DX009 (ip), vehicle: Klucel (hydroxypropylcellulose) (HPC)", "value": "96 % of control"}, {"measurement": "T/C", "setting": "endpoint: median survival time, dose: 50.0 mg/kg/injection, schedule: Q01DX009 (ip), vehicle: Klucel (hydroxypropylcellulose) (HPC)", "value": "97 % of control"}]}, {"smiles": "O=C1C=C(N2C3C4CCC(C4)C32)C(=O)C=C1c1ccccc1", "note": "(stereo not given)", "values": [{"measurement": "T/C", "setting": "endpoint: mean survival time, dose: 50.0 mg/kg/injection, schedule: Q01DX001 (ip), vehicle: saline with Tween-80", "value": "96 % of control and 98 % of control and 108 % of control"}, {"measurement": "T/C", "setting": "endpoint: mean survival time, dose: 100.0 mg/kg/injection, schedule: Q01DX001 (ip), vehicle: saline with Tween-80", "value": "121 % of control and 94 % of control and 96 % of control"}, {"measurement": "T/C", "setting": "endpoint: mean survival time, dose: 200.0 mg/kg/injection, schedule: Q01DX001 (ip), vehicle: saline with Tween-80", "value": "115 % of control and 97 % of control and 102 % of control"}, {"measurement": "T/C", "setting": "endpoint: mean survival time, dose: 400.0 mg/kg/injection, schedule: Q01DX001 (ip), vehicle: saline with Tween-80", "value": "102 % of control"}]}, {"smiles": "CSc1ccc2c(c1)C(N1CCN(C)CC1)Cc1ccccc1S2", "note": "(stereo not given)", "values": [{"measurement": "T/C", "setting": "endpoint: mean survival time, dose: 1.56 mg/kg/injection, schedule: Q01DX009 (ip), vehicle: saline with Tween-80", "value": "112 % of control"}, {"measurement": "T/C", "setting": "endpoint: mean survival time, dose: 3.12 mg/kg/injection, schedule: Q01DX009 (ip), vehicle: saline with Tween-80", "value": "118 % of control and 121 % of control"}, {"measurement": "T/C", "setting": "endpoint: mean survival time, dose: 6.25 mg/kg/injection, schedule: Q01DX009 (ip), vehicle: saline with Tween-80", "value": "116 % of control and 122 % of control"}, {"measurement": "T/C", "setting": "endpoint: mean survival time, dose: 12.5 mg/kg/injection, schedule: Q01DX009 (ip), vehicle: saline with Tween-80", "value": "115 % of control and 120 % of control"}, {"measurement": "T/C", "setting": "endpoint: mean survival time, dose: 25.0 mg/kg/injection, schedule: Q01DX009 (ip), vehicle: saline with Tween-80", "value": "122 % of control and 108 % of control"}, {"measurement": "T/C", "setting": "endpoint: mean survival time, dose: 50.0 mg/kg/injection, schedule: Q01DX009 (ip), vehicle: saline with Tween-80", "value": "114 % of control"}]}, {"smiles": "COc1ccc(/C=C/C(=O)c2ccc(OC)c(OC)c2)cc1OC", "values": [{"measurement": "T/C", "setting": "endpoint: mean survival time, dose: 100.0 mg/kg/injection, schedule: Q04DX003 (ip), vehicle: saline with Tween-80", "value": "96 % of control"}, {"measurement": "T/C", "setting": "endpoint: mean survival time, dose: 200.0 mg/kg/injection, schedule: Q04DX003 (ip), vehicle: saline with Tween-80", "value": "101 % of control"}, {"measurement": "T/C", "setting": "endpoint: mean survival time, dose: 400.0 mg/kg/injection, schedule: Q04DX003 (ip), vehicle: saline with Tween-80", "value": "98 % of control"}]}, {"smiles": "COc1ccc(S(=O)(=O)F)cc1NC(=O)c1ccc2ccccc2c1O", "values": [{"measurement": "T/C", "setting": "endpoint: mean survival time, dose: 100.0 mg/kg/injection, schedule: Q01DX009 (ip), vehicle: saline", "value": "112 % of control"}, {"measurement": "T/C", "setting": "endpoint: mean survival time, dose: 200.0 mg/kg/injection, schedule: Q01DX009 (ip), vehicle: saline", "value": "108 % of control"}, {"measurement": "T/C", "setting": "endpoint: mean survival time, dose: 400.0 mg/kg/injection, schedule: Q01DX009 (ip), vehicle: saline", "value": "113 % of control"}]}, {"smiles": "Brc1ccc(N=Cc2ccccc2)cc1", "values": [{"measurement": "T/C", "setting": "[1]", "value": "100 % of control"}, {"measurement": "T/C", "setting": "[2]", "value": "103 % of control"}, {"measurement": "T/C", "setting": "[3]", "value": "107 % of control"}]}, {"smiles": "CCC(=O)OCCNc1ccc([N+](=O)[O-])cc1[N+](=O)[O-]", "values": [{"measurement": "T/C", "setting": "endpoint: mean survival time, dose: 100.0 mg/kg/injection, schedule: Q04DX002 (ip), vehicle: other", "value": "106 % of control"}, {"measurement": "T/C", "setting": "endpoint: mean survival time, dose: 200.0 mg/kg/injection, schedule: Q04DX002 (ip), vehicle: other", "value": "109 % of control"}, {"measurement": "T/C", "setting": "endpoint: mean survival time, dose: 400.0 mg/kg/injection, schedule: Q04DX002 (ip), vehicle: other", "value": "91 % of control"}]}, {"smiles": "O=C1CC2C=CC1CC2", "note": "(stereo not given)", "values": [{"measurement": "T/C", "setting": "endpoint: mean survival time, dose: 100.0 mg/kg/injection, schedule: Q04DX003 (ip), vehicle: other", "value": "105 % of control"}, {"measurement": "T/C", "setting": "endpoint: mean survival time, dose: 200.0 mg/kg/injection, schedule: Q04DX003 (ip), vehicle: other", "value": "101 % of control"}, {"measurement": "T/C", "setting": "endpoint: mean survival time, dose: 400.0 mg/kg/injection, schedule: Q04DX003 (ip), vehicle: other", "value": "100 % of control"}]}, {"smiles": "S=P(N1CCOCC1)(N1CC1)N1CC1", "values": [{"measurement": "T/C", "setting": "endpoint: mean survival time, dose: 10.0 mg/kg/injection, schedule: Q01DX007 (ip), vehicle: saline", "value": "116 % of control"}, {"measurement": "T/C", "setting": "endpoint: mean survival time, dose: 10.0 mg/kg/injection, schedule: Q03DX003 (ip), vehicle: saline", "value": "118 % of control"}, {"measurement": "T/C", "setting": "endpoint: mean survival time, dose: 10.0 mg/kg/injection, schedule: Q04DX003 (ip), vehicle: saline", "value": "114 % of control"}, {"measurement": "T/C", "setting": "endpoint: mean survival time, dose: 12.5 mg/kg/injection, schedule: Q01DX Z (ip), vehicle: carboxymethylcellulose (CMC)", "value": "118 % of control"}, {"measurement": "T/C", "setting": "endpoint: mean survival time, dose: 20.0 mg/kg/injection, schedule: Q01DX007 (ip), vehicle: saline", "value": "172 % of control"}, {"measurement": "T/C", "setting": "endpoint: mean survival time, dose: 20.0 mg/kg/injection, schedule: Q01DX009 (ip), vehicle: saline", "value": "171 % of control"}, {"measurement": "T/C", "setting": "endpoint: mean survival time, dose: 25.0 mg/kg/injection, schedule: Q01DX Z (ip), vehicle: carboxymethylcellulose (CMC)", "value": "100 % of control"}, {"measurement": "T/C", "setting": "endpoint: mean survival time, dose: 40.0 mg/kg/injection, schedule: Q01DX007 (ip), vehicle: saline", "value": "86 % of control"}, {"measurement": "T/C", "setting": "endpoint: mean survival time, dose: 40.0 mg/kg/injection, schedule: Q01DX009 (ip), vehicle: saline", "value": "100 % of control"}, {"measurement": "T/C", "setting": "endpoint: mean survival time, dose: 40.0 mg/kg/injection, schedule: Q03DX003 (ip), vehicle: saline", "value": "223 % of control"}, {"measurement": "T/C", "setting": "endpoint: mean survival time, dose: 40.0 mg/kg/injection, schedule: Q04DX003 (ip), vehicle: saline", "value": "218 % of control"}]}, {"smiles": "OCC(O)c1ccccc1", "note": "(stereo not given)", "values": [{"measurement": "T/C", "setting": "[1]", "value": "97 % of control"}, {"measurement": "T/C", "setting": "[2]", "value": "101 % of control"}, {"measurement": "T/C", "setting": "[3]", "value": "104 % of control"}]}, {"smiles": "CN(CCS(=O)(=O)O)/N=C/c1ccc2c(c1)OCO2", "values": [{"measurement": "T/C", "setting": "endpoint: mean survival time, dose: 25.0 mg/kg/injection, schedule: Q04DX003 (ip), vehicle: acetone", "value": "97 % of control"}, {"measurement": "T/C", "setting": "endpoint: mean survival time, dose: 50.0 mg/kg/injection, schedule: Q04DX003 (ip), vehicle: acetone", "value": "103 % of control"}, {"measurement": "T/C", "setting": "endpoint: mean survival time, dose: 100.0 mg/kg/injection, schedule: Q04DX003 (ip), vehicle: acetone", "value": "98 % of control"}]}]}
